Assay results published in publication PMC3532720, “A Sugar Gustatory Receptor Identified from the Foregut of Cotton Bollworm Helicoverpa armigera” (Journal of Chemical Ecology, 2012).

Target: T1, HaGR9 (Helicoverpa armigera, UniProt L0C9V2)
T1 construct: gene GR9; native full-length receptor, 465 residues, untagged, cDNA from larval foregut, transiently expressed in Spodoptera frugiperda Sf9 cells, no co-receptor co-transfected
T1 sequence (L0C9V2 1-465): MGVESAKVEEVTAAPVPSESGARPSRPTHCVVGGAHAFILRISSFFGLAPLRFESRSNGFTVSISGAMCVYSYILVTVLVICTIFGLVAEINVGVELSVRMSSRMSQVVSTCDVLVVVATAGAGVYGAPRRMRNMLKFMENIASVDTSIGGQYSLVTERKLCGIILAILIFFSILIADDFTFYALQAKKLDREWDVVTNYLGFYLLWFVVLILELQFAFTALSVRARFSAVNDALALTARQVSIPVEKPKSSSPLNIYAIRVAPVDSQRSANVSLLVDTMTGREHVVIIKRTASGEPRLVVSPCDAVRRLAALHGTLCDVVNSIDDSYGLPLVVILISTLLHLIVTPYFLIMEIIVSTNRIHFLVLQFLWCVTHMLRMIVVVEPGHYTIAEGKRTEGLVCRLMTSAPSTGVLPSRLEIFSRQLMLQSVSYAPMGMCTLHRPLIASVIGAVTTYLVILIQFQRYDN
Experiment: calcium imaging, transfected Sf9 cells
Assay type: cell-based
Conditions: agonist; dose range 5 to 50 mM; HBSS buffer; control-cell response subtracted; Sf9 cells have endogenous sugar responses

| EC50 [mM] | SMILES |
| --- | --- |
| 21.5 ± 1.1 | OCC1(O)OC[C@@H](O)[C@@H](O)[C@@H]1O (stereo partly drawn) [D-fructose] |
| 21.3 ± 1.1 | OC[C@H]1OC(O)[C@H](O)[C@@H](O)[C@H]1O (stereo partly drawn) [D-galactose] |
| 16.5 ± 1.3 | OC[C@H]1O[C@H](O[C@H]2[C@H](O)[C@@H](O)C(O)O[C@@H]2CO)[C@H](O)[C@@H](O)[C@@H]1O (stereo partly drawn) [D-maltose] |
